The values that follow come from publication PMC9138599, “Clade-Specific Alterations within the HIV-1 Capsid Protein with Implications for Nuclear Translocation” (Biomolecules, 2022).

Like-named read-outs stand apart in the source and are kept apart here.

The target of experiment [1] is HIV-1 CA hexamer from clade C (92BR025.8) (Human immunodeficiency virus type 1 group M subtype C, UniProt O12157, E175C/M315A/P144C/W314A). The experiment can be described thus: SPR binding to immobilized HIV-1 CA hexamer, clade C.
Sequence of HIV-1 CA hexamer from clade C (92BR025.8) (O12157 131-361 P144C/E175C/W314A/M315A): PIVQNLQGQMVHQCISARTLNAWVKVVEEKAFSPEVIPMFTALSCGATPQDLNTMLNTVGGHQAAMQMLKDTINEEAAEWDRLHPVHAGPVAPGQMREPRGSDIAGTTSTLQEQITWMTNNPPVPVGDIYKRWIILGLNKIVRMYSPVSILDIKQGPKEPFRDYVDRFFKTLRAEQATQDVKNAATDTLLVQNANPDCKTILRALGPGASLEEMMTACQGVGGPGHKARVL
Experiment [2] has as its system HIV-1 CA hexamer from clade A1 (92UG037.1). Type of experiment: binding. The following applies: SPR.
Experiment [3] concerns HIV-1 CA hexamer from clade A2 (CDKTB48). Type of experiment: binding. The settings on record: SPR.
Experiment [4] concerns the target HIV-1 CA hexamer from clade B (NL4-3) (Human immunodeficiency virus type 1 group M subtype B, UniProt P12493, A146C/E177C/M317A/W316A). The experiment can be described thus: SPR binding to immobilized HIV-1 CA hexamer, clade B.
Experiment [5] relates to HIV-1 CA hexamer from clade D (94UG114.1). It counts as binding. The following applies: SPR.
Experiment [6] deals with monomeric HIV-1 CA protein, clade A1 (92UG037.1). The experiment can be described thus: In vitro CA assembly (turbidity) assay, clade A1. Type of experiment: biochemical. The settings on record: 3 M NaCl.
Description: (§1) In vitro assembly of the monomeric HIV-1 CA proteins was performed using a modification of the standard CA turbidity assembly assay [62, 63, 64, 65, 66]. This assay relies upon the fact that the addition of high salt to HIV-1 CA protein causes self-assembly that can be monitored and quantified as the increase in turbidity over time, as described in Kortagere et al. [61, 67]. Briefly, 75 µL of buffer was prepared, containing a final concentration of 50 mM NaH2PO4 pH 8.0 and various concentrations (1–5 M) of NaCl to assess the optimal concentration of salt needed to initiate assembly after the addition of the purified clade variants. To initiate the assembly reaction, 25 µL of 120 µM purified capsid was added to a final CA concentration of 30 µM (including matching DMSO concentrations). In the presence of compounds, the in vitro reaction contained 50 mM NaH2PO4 pH 8.0, 30 µM CA protein, 50 µM inhibitor, 3% DMSO, and 3 M NaCl. Readings were then taken at 350 nm every 30 s for 20 min to measure the increase in turbidity over time. The OD at 350 nm over the first 2 min was then plotted and fit with a linear regression to calculate the initial velocity (AU/min) of CA assembly.
Experiment [7] has as its system monomeric HIV-1 CA protein, clade A2 (CDKTB48). Briefly: In vitro CA assembly (turbidity) assay, clade A2. Type of experiment: biochemical. The settings on record: 3 M NaCl.
Description: as §1
Experiment [8] deals with T1, monomeric HIV-1 CA protein, clade C (92BR025.8) (Human immunodeficiency virus type 1 group M subtype C, UniProt O12157).
T1 construct: hexahistidine (C); made in house; host or cells: E. coli BL21 (DE3) RIL
T1 sequence (O12157 131-361): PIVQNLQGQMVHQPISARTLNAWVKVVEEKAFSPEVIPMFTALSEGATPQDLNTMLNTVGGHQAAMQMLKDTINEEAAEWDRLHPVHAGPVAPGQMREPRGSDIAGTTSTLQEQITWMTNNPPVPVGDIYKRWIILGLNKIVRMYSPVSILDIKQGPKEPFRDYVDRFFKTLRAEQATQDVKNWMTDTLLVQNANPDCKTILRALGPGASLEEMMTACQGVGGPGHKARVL
The experiment can be described thus: In vitro CA assembly (turbidity) assay, clade C. Type of experiment: biochemical. The following applies: clade C CA 30 µM, 50 µM inhibitor, 3 M NaCl, first 120 s, n = 3.
Description: as §1

Experiment [9] deals with monomeric HIV-1 CA protein, clade D (94UG114.1). The experiment can be described thus: In vitro CA assembly (turbidity) assay, clade D. It counts as biochemical. The following applies: clade D CA 30 µM, 50 µM inhibitor, 3 M NaCl, first 120 s, n = 3.
Description: as §1
Experiment [10] has as its target monomeric HIV-1 CA protein, clade B (NL4-3) (Human immunodeficiency virus type 1 group M subtype B, UniProt P12493).
Description: as §1
Experiment [11] addresses tri-hexameric interface of CA hexamers. Also noted: method as in PMID 34835048. The following applies: RRR patch binding into tri-hexameric interface; cited from earlier work.
Setting [12] is: global fit, n = 3, read-out: KD Kinetic/Global.
Where [13] appears, read: Langmuir isotherm equilibrium fit, 25 °C, n = 3, read-out: KD Equilibrium.
Where [14] appears, read: SPR, clade B (NL4.3) hexamer, 1:1 binding model, n = 3.

As to `CC(C)[C@H](NC(=O)CNC(=O)[C@H](CO)NC(=O)[C@@H]1CCCN1C(=O)[C@H](CO)NC(=O)[C@H](CC(N)=O)NC(=O)[C@H](CC(N)=O)NC(=O)[C@@H](N)[C@@H](C)O)C(=O)N[C@@H](Cc1ccccc1)C(=O)N[C@H](C(=O)N[C@@H](Cc1ccccc1)C(=O)NCC(=O)N[C@@H](C)C(=O)N[C@@H](CC(N)=O)C(=O)N[C@@H](CO)C(=O)N[C@@H](CO)C(=O)N[C@H](C(=O)O)[C@@H](C)O)[C@@H](C)O` [NUP-153], the Kd came out at 503000 nM in experiment [1] (Langmuir isotherm equilibrium fit, n = 3, read-out: KD Equilibrium) and 881000 nM in experiment [1] (setting [12]).

As for PF-74, the koff is 0.647 s⁻¹ in experiment [2] (1:1 binding model, n = 3); 0.0916 s⁻¹ in experiment [3] (1:1 binding model, n = 3); 0.0363 s⁻¹ in experiment [4] (setting [14]); 0.0754 s⁻¹ in [1] (1:1 binding model, n = 3); 0.0395 s⁻¹ in experiment [5] (1:1 binding model, n = 3). For the same compound, the kon in experiment [2] (1:1 binding model, n = 3) came out at 615000 M⁻¹ s⁻¹; in experiment [3] (1:1 binding model, n = 3), 669000 M⁻¹ s⁻¹; in [4] (setting [14]) it was 756000 M⁻¹ s⁻¹; in experiment [1] (1:1 binding model, n = 3), 228000 M⁻¹ s⁻¹; in experiment [5] (1:1 binding model, n = 3), 773000 M⁻¹ s⁻¹. Moreover, the Kd amounted to 716 nM in experiment [2] (setting [13]); 946 nM in experiment [2] (setting [12]); 138 nM in [3] (setting [13]); 139 nM in [3] (setting [12]); 354 nM in [1] (setting [13]); 330 nM in experiment [1] (setting [12]). Further, the Kd in experiment [5] (setting [13]) and in [5] (setting [12]) was 51 nM each time. In addition, the “fold tighter binding to clade B protein compared to clade A1 protein” value in experiment [4] (SPR data, clade B vs clade A1) is on record as ~ 20 fold. For the same compound, the “fold increase in assembly rate (initial velocity) vs Apo” value was determined as 1.5 fold in [6] (clade A1, 50 µM inhibitor, initial 120 s) and 1.3 fold in experiment [7] (clade A2, 50 µM inhibitor, initial 120 s). Also, the “Initial Velocity PF-74” value in experiment [6] (clade A1 CA 30 µM, 50 µM inhibitor, first 120 s, n = 3) is given as 0.034 ± 0.001 AU/min; in [7] (clade A2 CA 30 µM, 50 µM inhibitor, first 120 s, n = 3) it was 0.017 ± 0.002 AU/min; in [8], 0.039 ± 0.007 AU/min; in experiment [9], 0.050 ± 0.008 AU/min; in experiment [10], 0.043 ± 0.009 AU/min.

On to “RRR patch: highly positively charged RRR motif at the C-terminus of NUP-153 binding the tri-hexameric interface of CA (FSGRKIKTAVRRRK; UniProt P49790 1462-1475, looked up, fragment)”, for which the Kd in experiment [11] is 800 nM.
